Assay results published in publication PMC9729826, “Hypoaminoacidemia underpins glucagon-mediated energy expenditure and weight loss” (Cell Reports Medicine, 2022).
Starred links: 1 amine or outer side, 2 acyl side, 3 side chain; linkers in the order of their positions; H or OH if unused. Non-standard residues stand in square brackets, D forms with d. Residues, ends and D or L forms follow the SMILES beside them. Groups on a side chain read outwards from the residue. *: point of attachment. C18 diacid = O=C(O)CCCCCCCCCCCCCCCCC(=O)*; γGlu = O=C(O)[C@H](CCC(=O)[*:2])N[*:1]; Aib = CC(C)(N)C(=O)O

Experiments:
[1] = Pharmacokinetic profile of G108 in rats (plasma radioimmunoassay); conditions: rat, in vivo, sc, male Wistar rats, single 0.5 mg subcutaneous dose, sampled 1.5-72 h, n = 4, read-out: time at which peak plasma concentrations were achieved
Description: 10-week-old male Wistar rats (N = 4) were administered with 0.5 mg G108 via 100 μL subcutaneous injection. Tail venesection was performed to collect 100 μL blood samples prior to injection and at 1.5, 3, 6, 24, 48 and 72 h after injection. Blood samples were immediately frozen on ice, centrifuged at 8000 × g for 10 min at 4°C, and the plasma supernatant collected. Samples were stored at −20°C.
An in-house radioimmunoassay was used to determine peptide concentrations in the rat plasma. Antiserum (RA553/3) was produced in rabbits against the purified glucagon (1–16) fragment which specifically cross-reacted with the N-terminal glucagon-like sequence of G108. Direct iodination was used to produce Iodine-125 glucagon which was purified by reverse phase high pressure liquid chromatography. The assay was performed in a total volume of 700 μL of 0.06 M phosphate EDTA buffer containing 0.3% BSA. All samples were assayed in duplicate and the standard curve was set using 5 pmol/mL G108 in assay buffer. The assay was incubated for 3 nights at 4°C prior to separation via charcoal into free and antibody-bound label. A γ-counter was used to count the pellet and supernatant and the ratio of free to bound label was calculated. The plasma peptide concentration was calculated using two phase exponential decay with respect to the relevant standard curve.

[2] = system: diet-induced obese (DIO) C57BL/6 mice; assay: Chronic low-dose (7.5 nmol/kg) G108 study in DIO mice on SP or HP diet; type: in vivo, mouse; conditions: 7.5 nmol/kg s.c. daily
Source text: Lean 10-week-old C57BL/6 mice (N = 27) were provided ad libitum a 60 kcal% high fat diet (diet D12492, Table S2) for 12 weeks prior to the start of the study. The cohort of mice were individually housed and divided into three treatment groups, based on treatment and diet allocation: Vehicle/High fat, Standard protein diet (SP) (N = 9), 7.5 nmol/kg G108/SP diet (N = 9) and 7.5 nmol/kg G108/High fat, High protein diet (HP) (N = 9). The high fat, standard protein diet (SP diet) (D08091803) and high fat, high protein diet (HP diet) (D08091801) are detailed in Table S2. All mice had ad libitum access to water and their allocated diets. Mice were subcutaneously administered with their respective treatments at 9 am each day for 27 days. Food intake, water intake and body weight were measured using the same weighing scale each morning prior to vehicle or G108 administration. EchoMRI was carried out at baseline, day 14 and day 25. Tail venesection was carried out on day 13 of the study immediately pre-treatment. 40–50 μL of blood was collected and immediately transferred on ice, centrifuged at 2800 × g for 10 min prior to analysis for total and individual plasma amino acids. A glucose tolerance test was carried out on day 15 of the study following a 5 h fast as described below. Forelimb grip strength testing was performed at baseline and day 25 of the study. After 20 days, all groups were placed into metabolic cages, single housed for 72 h, as described below. After 72 h, all groups were removed from the metabolic cages and returned to their home cages. Following a 4 h fast on day 27 all mice were culled, with the following tissues dissected and snap frozen in liquid nitrogen prior to storage at −80°C: gastrocnemius, quadriceps, brown adipose tissue (BAT) and liver. Terminal blood was also collected and transferred on ice immediately for centrifugation as previously described and storage at −80°C.
Food intake was measured daily using a dedicated weighing scale and topped up accordingly. Body weight was recorded at 9 am daily or every 48 h using the same weighing scale. Body composition was measured using an EchoMRI analyser at various timepoints during chronic studies. Body composition measurements were taken on the same time of day to reduce intra-animal variability. Animals were placed in a transparent cylindrical Perspex tube and both ends secured with Perspex clips. The tubes containing the animal was then carefully placed into the MRI machine (EchoMRI −100H analyser, EchoMRI). Each scan lasted approximately 90 s where lean mass and fat mass were recorded in grams. Following the scan, the mice were removed from the Perspex tube and returned to their respective cages.
For glucose tolerance tests, following a 5 h fast and administration of peptide or vehicle treatment, mice were administered with glucose by intraperitoneal injection at a dose of 2 g/kg body weight. Tail vein blood samples were taken at baseline, 20, 40, 60 and 90 min and glucose measured (mmol/L) using a handheld GlucoRx monitor (GlucoRx, UK).
To measure energy expenditure, DIO mice were placed into a Comprehensive Laboratory Animal Monitoring System (CLAMS, Columbus instruments, Columbus, US). Measurement of oxygen consumption and carbon dioxide production was taken at 20 min intervals. Food intake was also measured electronically without the need to remove food. Each cohort of mice were placed into the CLAMS system with daily weighing of body weight prior to administration of the allocated treatment at 9 am. Following administration of treatment, mice were placed back into the metabolic cages with ad libitum access to their allocated diet. For studies with the low amino acid (LAA) diet in metabolic cages, animals were not removed from the metabolic cages until the end of the experiment and had ad libitum access to either standard protein or low amino acid diets. Feed efficiency was calculated as mg body weight change per kJ consumed. […]

- Tmax [1]: 24 h
Structure (SMILES): CC[C@H](C)[C@H](NC(=O)[C@H](Cc1ccccc1)NC(=O)[C@H](CCC(=O)O)NC(=O)[C@H](CCC(N)=O)NC(=O)[C@H](C)NC(=O)[C@H](CCCNC(=N)N)NC(=O)[C@H](CCCCN)NC(=O)[C@H](C)NC(=O)[C@H](CC(=O)O)NC(=O)[C@H](CC(C)C)NC(=O)[C@H](Cc1ccc(O)cc1)NC(=O)[C@H](CCCNC(=N)N)NC(=O)[C@H](CO)NC(=O)[C@H](Cc1ccc(O)cc1)NC(=O)[C@H](CC(=O)O)NC(=O)[C@H](CO)NC(=O)[C@@H](NC(=O)[C@H](Cc1ccccc1)NC(=O)[C@@H](NC(=O)CNC(=O)[C@H](Cc1c[nH]cn1)NC(=O)C(C)(C)NC(=O)[C@@H](N)Cc1c[nH]cn1)[C@@H](C)O)[C@@H](C)O)C(=O)N[C@@H](CCC(=O)O)C(=O)N[C@@H](Cc1c[nH]c2ccccc12)C(=O)N[C@@H](CC(C)C)C(=O)N[C@@H](CC(C)C)C(=O)N[C@@H](CCC(N)=O)C(=O)N[C@@H](CO)C(=O)N[C@@H](Cc1c[nH]cn1)C(=O)N[C@@H](Cc1c[nH]cn1)C(=O)N[C@@H](CCC(N)=O)C(=O)N[C@@H](Cc1c[nH]cn1)C(=O)N[C@@H](Cc1c[nH]cn1)C(=O)N1CCC[C@H]1C(=O)N[C@@H](CO)C(=O)N1CCC[C@H]1C(=O)N1CCC[C@H]1C(=O)N1CCC[C@H]1C(=O)N[C@@H](CCCCNC(=O)[C@H](CC(N)=O)NC(=O)CC[C@H](NC(=O)CCCCCCCCCCCCCCCCC(=O)O)C(=O)O)C(N)=O [Peptide G108] (H-H[Aib]HGTFTSDYSRYLDAKRAQEFIEWLLQSHHQHHPSPPPK([Asn-γGlu-C18 diacid])-NH2; N-terminus and C-terminus assumed)
- food intake ([2]; 27 days): did not affect food intake
- body weight on high protein (HP) diet ([2]; 27 days, HP diet (40 kcal% protein) versus SP diet, n = 9/group): sufficient to prevent chronic G108-mediated weight loss
- lean mass and grip strength on HP diet ([2]; HP diet, less pronounced over the course of the study): blunted the reduction in lean mass and grip strength
- energy expenditure (EE) in metabolic cages ([2]; after 20 days, CLAMS, SP and HP diets, n = 7-8/group): increased EE on a standard protein (SP), but not HP, diet
- individual plasma amino acids ([2]; day 13, SP diet, GC/MS, n = 5/group): reduced the plasma abundance of most amino acids
- plasma total cholesterol ([2]; day 14, both SP and HP diets, n = 9/group): improvement in plasma cholesterol
- plasma total triglyceride ([2]; day 14, n = 9/group): no change in plasma triglycerides
- glucose tolerance (intraperitoneal glucose tolerance test, 2 g/kg) ([2]; day 15, SP and HP diets, n = 9/group): remarkably efficient at improving glucose tolerance
- fat mass on standard protein (SP) diet ([2]; days 14 and 25, SP diet, prevented by HP diet): marked reduction in fat mass
- induction of hepatic amino acid catabolic pathways on HP diet ([2]; liver qPCR, n = 5-6/group): not prevented by the HP diet
- hepatic lipid content (oil red O staining) ([2]; terminal (day 27), both SP and HP diets): highly effective at clearing liver fat
